Read-outs that look alike come from different tables or passages of the source. *1 amine or outer side, *2 acyl side, *3 side chain or, on linkers, in order; H or OH if unused. Where a SMILES comes first, the peptide text is derived from it. Side-chain parts run from the residue outwards. [ ]: non-standard residue; d: D form. The star is where a group is joined. PEG24 = NCCOCCOCCOCCOCCOCCOCCOCCOCCOCCOCCOCCOCCOCCOCCOCCOCCOCCOCCOCCOCCOCCOCCOCCOCCC(=O)O; Bip(2'-Et-4'-O(CH2)4NH2) = CCc1cc(OCCCCN[*:3])ccc1-c1ccc(C[C@H](N[*:1])C(=O)[*:2])cc1; Bip(2'-Et,4'-O(CH2)4NH2) = CCc1cc(OCCCCN)ccc1-c1ccc(C[C@H](N)C(=O)O)cc1; Nva(5-(3,5-Me2Ph)) = Cc1cc(C)cc(CCC[C@H](N)C(=O)O)c1; Ala(1H-tetrazol-5-yl) = N[C@@H](Cc1nnn[nH]1)C(=O)O; αMePhe(2-F) = C[C@](N)(Cc1ccccc1F)C(=O)O; X9 = O=C([C@@H]1CCN(CCc2cnc[nH]2)C1)*; DBCO = C1#Cc2ccccc2N(*)Cc2ccccc21; Suc = O=C(CCC(=O)[*:2])[*:1]; X1 = O=C(CCCCCc1cnc[nH]1)*
Assays:
human GLP1R = human GLP1R (Homo sapiens, UniProt P43220); experiment: Luciferase reporter assay, HEK293/CRE-Luc/hGLP1R (Example 17); type: cell-based; parameters: engineered to express full-length human GLP1R, cynomolgus GLP1R; expressed in transfected cells; host or cells: HEK293/CRE-Luc; details: for S/N: highest RLU / RLU of untreated wells; for Relative Potency (% M2361 EC50) / Relative Signal:Noise (% M2361): relative to M2361 of the same experiment
human GLP1R, sequence (P43220 24-463): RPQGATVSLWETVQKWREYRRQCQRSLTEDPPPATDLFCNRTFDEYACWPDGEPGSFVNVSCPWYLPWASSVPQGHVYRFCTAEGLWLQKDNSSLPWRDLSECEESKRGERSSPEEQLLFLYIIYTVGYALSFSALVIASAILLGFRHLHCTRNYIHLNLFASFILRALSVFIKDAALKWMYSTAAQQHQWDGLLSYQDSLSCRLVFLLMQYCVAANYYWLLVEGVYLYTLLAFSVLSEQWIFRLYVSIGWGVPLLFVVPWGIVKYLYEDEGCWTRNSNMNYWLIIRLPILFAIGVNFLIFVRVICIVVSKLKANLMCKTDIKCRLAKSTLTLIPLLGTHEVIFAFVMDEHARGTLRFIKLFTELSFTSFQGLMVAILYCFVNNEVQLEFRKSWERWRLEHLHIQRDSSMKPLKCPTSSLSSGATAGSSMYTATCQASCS
Description: (§1) To test the activity of GLP1R agonist payloads, GLP1R agonist linker-payloads (LPs), and anti-GLP1R antibody tethered drug conjugates (ATDCs) of the invention, a cell-based cAMP responsive luciferase reporter assay was developed. To generate the assay cell line, the firefly luciferase gene was placed under the control of a cAMP response element (CRE) located upstream of a minimal promoter and transfected into HEK293 cells and referred to herein as HEK293/CRE-Luc cells.
(§2) Three-fold serial dilutions of free payloads or LPs were prepared in 100% DMSO, transferred to fresh assay media, and added to the cells at a final constant DMSO concentration of 0.2%. The last well in the plate served as a blank control containing only the assay media and 0.2% DMSO (untreated well) and was plotted as a continuation of the 3-fold serial dilution. Four to six hours later, luciferase activity was determined after the addition of One-Glo™ reagent (Promega, Cat #E6130) to each well. Relative light units (RLUs) were measured on an Envision luminometer (PerkinElmer) and EC50 values were determined using a four-parameter logistic equation over a 12-point dose response curve (GraphPad Prism). The signal to noise (S/N) was determined by taking the ratio of the highest RLU on the dose response curve to the RLU in the untreated wells. Data was generated across several experiments (A-E) with M2361 serving as a reference standard in each experiment to calculate the payload relative potency ((M2361 EC50/payload EC50)*100)) and relative S/N ((payload SN/M2361 SN)*100)).

HEK293/CRE-Luc cells = experiment: Luciferase reporter assay, HEK293/CRE-Luc cells without GLP1R (Example 17); type: cell-based, human
Description: as §1, §2

[1] = HEK293/CRE-Luc/hGLP1R, payloads and linker-payloads, experiments A-E, M2361 repeated in each, read-out: EC50
[2] = HEK293/CRE-Luc cells without hGLP1R, payloads and linker-payloads
[3] = HEK293/CRE-Luc cells without hGLP1R, payloads and linker-payloads, read-out: EC50
[4] = Table 28, reporter cells without GLP1R, read-out: HEK293/CRE-Luc EC50
[5] = Table 29, reporter cells without GLP1R, read-out: HEK293/CRE-Luc EC50

For `CCc1cc(OCCCCNC(=O)[C@H](CO)NC(=O)CNC(=O)CNC(=O)CNC(=O)CN)ccc1-c1ccc(C[C@H](NC(=O)[C@H](CC(=O)O)NC(=O)[C@H](CO)NC(=O)[C@@H](NC(=O)[C@](C)(Cc2ccccc2F)NC(=O)[C@@H](NC(=O)CNC(=O)[C@H](Cc2nn[nH]n2)NC(=O)C(C)(C)C(=O)NCCc2cnc[nH]2)[C@@H](C)O)[C@@H](C)O)C(=O)N[C@@H](CCCc2cc(C)cc(C)c2)C(N)=O)cc1` [M2739, G4S-P9], the S/N (human GLP1R; HEK293/CRE-Luc/hGLP1R) was 282.1, the EC50 (human GLP1R; [1]) was 0.01 nM and the “Relative Potency (% M2361 EC50)” value (human GLP1R; HEK293/CRE-Luc/hGLP1R) was 193.4%. For the same compound, the “Relative Signal:Noise (% M2361)” value (human GLP1R; HEK293/CRE-Luc/hGLP1R) was 86.0%.
For `CCc1cc(OCCCCN)ccc1-c1ccc(C[C@H](NC(=O)[C@H](CC(=O)O)NC(=O)[C@H](CO)NC(=O)[C@@H](NC(=O)[C@](C)(Cc2ccccc2F)NC(=O)[C@@H](NC(=O)CNC(=O)[C@@H](N)CCC(N)=O)[C@@H](C)O)[C@@H](C)O)C(=O)N[C@@H](CCCc2cc(C)cc(C)c2)C(N)=O)cc1` [M2913], the S/N (human GLP1R; HEK293/CRE-Luc/hGLP1R) was 3.2, the “Relative Potency (% M2361 EC50)” value (human GLP1R; HEK293/CRE-Luc/hGLP1R) was 0.0% and the “Relative Signal:Noise (% M2361)” value (human GLP1R; HEK293/CRE-Luc/hGLP1R) was 4.9%. It also gave a S/N (HEK293/CRE-Luc cells; [2]) of 1.1 and an EC50 (HEK293/CRE-Luc cells; [3]) greater than 200 nM.
In the case of `CCc1cc(OCCCCNC(=O)CCOCCOCCOCCOCCOCCOCCOCCOCCOCCOCCOCCOCCOCCOCCOCCOCCOCCOCCOCCOCCOCCOCCOCCOCCNC(=O)CCC(=O)N2Cc3ccccc3C#Cc3ccccc32)ccc1-c1ccc(C[C@H](NC(=O)[C@H](CC(=O)O)NC(=O)[C@H](CO)NC(=O)[C@@H](NC(=O)[C@](C)(Cc2ccccc2F)NC(=O)[C@@H](NC(=O)CNC(=O)[C@H](Cc2nn[nH]n2)NC(=O)CCCCCc2cnc[nH]2)[C@@H](C)O)[C@@H](C)O)C(=O)N[C@@H](CCCc2cc(C)cc(C)c2)C(N)=O)cc1` [M2944] (X1-[Ala(1H-tetrazol-5-yl)]GT[αMePhe(2-F)]TSD[Bip(2'-Et-4'-O(CH2)4NH2)]([PEG24-Suc-DBCO])[Nva(5-(3,5-Me2Ph))]-NH2), the EC50 (human GLP1R; [1]) is reported as greater than 20 nM and the EC50 (human GLP1R; text b1830, read-out: EC50 in HEK293/CRE-Luc/hGLP1R cells) is reported as greater than 20 nM.
`CCc1cc(OCCCCN)ccc1-c1ccc(C[C@H](NC(=O)[C@H](CC(=O)O)NC(=O)[C@H](CO)NC(=O)[C@@H](NC(=O)[C@](C)(Cc2ccccc2F)NC(=O)[C@@H](NC(=O)CNC(=O)[C@H](Cc2nn[nH]n2)NC(=O)[C@@H]2CCN(CCc3cnc[nH]3)C2)[C@@H](C)O)[C@@H](C)O)C(=O)N[C@@H](CCCc2cc(C)cc(C)c2)C(N)=O)cc1` [P17] (X9-[Ala(1H-tetrazol-5-yl)]GT[αMePhe(2-F)]TSD[Bip(2'-Et,4'-O(CH2)4NH2)][Nva(5-(3,5-Me2Ph))]-NH2) was tested, and the S/N (HEK293/CRE-Luc cells; [2]) was 1.0 and the EC50 (HEK293/CRE-Luc cells; [3]) was greater than 200 nM.
GCG [reference compound] gave an EC50 (HEK293/CRE-Luc cells; [4]) greater than 200 nM and an EC50 (HEK293/CRE-Luc cells; [5]) greater than 30 nM.
Work on GIP [reference compound] yielded an EC50 (HEK293/CRE-Luc cells; [4]) greater than 200 nM and an EC50 (HEK293/CRE-Luc cells; [5]) greater than 30 nM.
In the case of GLP2 [reference compound], the EC50 (HEK293/CRE-Luc cells; [4]) is reported as greater than 200 nM and the EC50 (HEK293/CRE-Luc cells; [5]) is reported as greater than 30 nM.

— patent publication US20230330254A1 (Regeneron Pharmaceuticals, Inc., priority 2022, published 2023)
